According to patent publication US8067394B2, “Synthesis and biological activities of new tricyclic-bis-enones (TBEs)” (Trustees of Dartmouth College, priority 2006, dated 2011):
“Also recorded” adds a separate entry of the source.

Experiments:
[1] = test system: NO production in RAW cells; experiment: Inhibition of NO production in RAW cells stimulated with interferon-γ; type: cell-based, mouse
[2] = test system: RMPI 8226 human myeloma cells; experiment: Proliferation of RMPI 8226 human myeloma cells (Coulter counter); type: cell-based; conditions: FIG. 1; treated 3-4 days
Description: (§1) FIG. 1. TBEs inhibit proliferation of RMPI 8226 human myeloma cells and U937 human leukemia cells. Cells were treated with TBEs and triterpenoids for 3-4 days and counted by Coulter counter. […] CDDO is presently in clinical trial for treatment of acute myelogenous leukemia. TP-235 is the imidazolide derivative of CDDO.
(§2) Cells were treated with triterpenoids and TBEs for 3-4 days and counted by Coulter counter. […] CDDO is presently in clinical trial for treatment of acute myelogenous leukemia. TP-235 is the imidazolide derivative of CDDO.

[3] = test system: U937 human leukemia cells; experiment: Proliferation of U937 human leukemia cells (Coulter counter); type: cell-based; conditions: FIG. 1; treated 3-4 days
Description: as §1, §2

heme oxygenase-1 [4] = experiment: Induction of heme oxygenase-1 in U937 cells (Western blot); type: cell-based, human; conditions: FIG. 2; 0.1-1 μM, 7 hours
Description: FIG. 2. […] Cells were incubated with TBEs and triterpenoids (0.1-1 μM) for 7 hours. Total cell lysates were analyzed by SDS-PAGE, probed with an HO-1 antibody, and developed by ECL. […] None of the other TBEs that were tested provided significant induction of heme oxygenase.
Cells were incubated with triterpenoids or TBEs (0.1-1 μM) for 7 hours. Total cell lysates were analyzed by SDS-PAGE, probed with an HO-1 antibody, and developed by ECL. […] None of the other TBEs that were tested provided significant induction of heme oxygenase.

heme oxygenase-1 [5] = experiment: Induction of heme oxygenase-1 in liver of CD-1 mice after gavage; type: in vivo
Description: FIG. 3. […] CD-1 mice (2 per group) were gavaged with TBEs or CDDO-Im in DMSO. After 6 h, livers were harvested and homogenized. Lysates were separated by SDS-PAGE, probed with HO-1 antibodies, and developed by ECL.
FIG. 11. […] Male CD-1 mice (3 per group) were gavaged with 1 μmol TBEs, CDDO or CDDO-Im in DMSO. Six hours later, livers were harvested and homogenized. Lysates were separated by SDS-PAGE, probed with HO-1 antibodies, and developed by ECL.
CD-1 mice (2 per group) were gavaged with TBEs or CDDO-Im in DMSO. After 6 h, livers were harvested and homogenized. Lysates were separated by SDS-PAGE, probed with HO-1 antibodies, and developed by ECL.

heme oxygenase-1 [6] = experiment: Induction of heme oxygenase-1 in stomach of CD-1 mice after gavage; type: in vivo; conditions: FIG. 12; male CD-1 mice, 1 μmol by gavage in DMSO, six hours
Excerpt: FIG. 12. […] Male CD-1 mice (3 per group) were gavaged with 1 μmol TBEs, CDDO or CDDO-Im in DMSO. Six hours later, stomachs were harvested and homogenized. Lysates were separated by SDS-PAGE, probed with HO-1 antibodies, and developed by ECL.

[7] = test system: CD11b expression in U937 cells; experiment: CD11b expression in U937 cells (FACS); type: cell-based, human; conditions: FIG. 4; 10-100 nM, 4 days
Description: FIG. 4. TBE-31 induces CD11b expression in U937 cells. Cells were incubated with CDDO-Im or TBE-31 (10-100 nM) for 4 days. CD11b expression was measured by FACS analysis. Induction of CD11b is a marker of leukemia cell differentiation.
Cells were incubated with CDDO-Im or TBE-31 (10-100 nM) for 4 days. CD11b expression was measured by FACS analysis. Induction of CD11b is a marker of leukemia cell differentiation.

iNOS = experiment: Inhibition of iNOS induction in RAW cells stimulated with IFN-γ (Western blot); type: cell-based, mouse; conditions: FIG. 5; IFNg 10 ng/ml, 24 hours
Jurkat cells = experiment: Proliferation of Jurkat cells (Coulter counter); type: cell-based; conditions: FIG. 6; 3-4 days
Description: FIG. 6. TBEs inhibit proliferation of Jurkat cells. Cells were treated with TBEs and triterpenoids for 3-4 days and counted by Coulter counter. […] Thus, it is to be expected that TBEs may have useful activities in regulation of lymphocyte, as well as macrophage, function.
Cells were treated with TBEs for 3-4 days and counted by Coulter counter.

[8] = test system: A549 human lung cancer cells; experiment: Apoptosis in A549 human lung cancer cells; type: cell-based; conditions: FIG. 7; 24 h
Description: FIG. 7. TBE-31 induces apoptosis in A549 human lung cancer cells. Cells were treated with TBE-31 for 24 h. A549 is a classic human lung cancer cell line.
Cells were treated for 24 h. A549 is a classic human lung cancer cell line.

U937 cells = experiment: Apoptosis in U937 cells (Annexin V); type: cell-based, human; conditions: FIG. 8, 24 hours
Description: FIG. 8. Induction of apoptosis in U937 cells by TBEs. Cells were treated with TBEs and triterpenoids for 24 hours.
Cells were treated for 24 hours.

HO-1 = experiment: Induction of HO-1 in RAW cells (Western blot); type: cell-based, mouse; conditions: FIG. 9; 30-300 nM, 24 hours
[9] = test system: aflatoxin-induced tumorigenesis; parameters: species or system F344 rats; conditions: rat, in vivo

## C#CC12C=C(C#N)C(=O)C=C1C1(C)C=C(C#N)C(=O)C(C)(C)C1CC2 (racemic) [TBE-31, 10a-ethynyl-4b,8,8-trimethyl-3,7-dioxo-3,4b,7,8,8a,9,10,10a-octahydrophenanthrene-2,6-dicarbonitrile]
[1]; Mus musculus, Table 5, C-8a functionalized TBE-9 analogs, stimulated with interferon-γ, read-out: IC50 (nM), NO production in RAW cells
  IC50: 1 nM
[1]; RAW cells, interferon-γ
  Potency for inhibition of NO production in RAW cells (in words): extremely potent at one nanomolar concentrations; also recorded: higher than CDDO and equal to TP-225
[2]
  Inhibition of proliferation of RMPI 8226 human myeloma cells: by far the most potent; also recorded: equivalent to that of CDDO itself (TP-151)
[3]
  Inhibition of proliferation of U937 human leukemia cells: by far the most potent; also recorded: more potent than CDDO
Heme oxygenase-1 [4]
  Induction of heme oxygenase-1 in U937 cells: potent inducer of heme oxygenase; also recorded: markedly more potent than TP-151 (CDDO), and almost as potent as TP-235
Heme oxygenase-1 [5]; FIG. 3, CD-1 mice, gavage in DMSO, livers after 6 h
  Induction of heme oxygenase-1 in liver in vivo: orally active agent; also recorded: comparable to that found with CDDO-Imidazolide
Heme oxygenase-1 [5]; FIG. 11, male CD-1 mice, 1 μmol by gavage in DMSO, six hours
  Induction of heme oxygenase-1 in liver: potent inducer of heme oxygenase-1 in liver
Heme oxygenase-1 [6]
  Induction of heme oxygenase-1 in stomach: induces heme oxygenase-1 in stomach
[7]
  Induction of CD11b expression in U937 cells: strongly induces CD11b at 100 nM; also recorded: comparable to that of CDDO-Im at 10 and 30 nM; also recorded: more potent than CDDO-Im at 100 nM
iNOS
  Suppression of induction of iNOS in RAW 264.7 cells: potent suppressor of induction of iNOS; also recorded: significantly more potent than CDDO, and almost as potent as CDDO-Imidazolide
Jurkat cells
  Inhibition of proliferation of Jurkat cells: extremely active, more so than CDDO (TP-151)
[8]
  Induction of apoptosis in A549 cells: can induce both early and late apoptosis
U937 cells
  Induction of apoptosis in U937 cells: most active of the TBEs; also recorded: markedly more active than CDDO (TP-151)
HO-1
  Induction of HO-1 in RAW cells: higher inducer than CDDO-Im
[9]
  Formation of preneoplastic (GST-P positive) foci in liver: reduces the formation of preneoplastic foci
